target: human A2AAR (Homo sapiens, UniProt P29274); assay: Radioligand binding at human A2AAR expressed in CHO cells; conditions: read-out: % inhibition at 1 µM (hA2AAR)
Sequence (P29274 whole entry): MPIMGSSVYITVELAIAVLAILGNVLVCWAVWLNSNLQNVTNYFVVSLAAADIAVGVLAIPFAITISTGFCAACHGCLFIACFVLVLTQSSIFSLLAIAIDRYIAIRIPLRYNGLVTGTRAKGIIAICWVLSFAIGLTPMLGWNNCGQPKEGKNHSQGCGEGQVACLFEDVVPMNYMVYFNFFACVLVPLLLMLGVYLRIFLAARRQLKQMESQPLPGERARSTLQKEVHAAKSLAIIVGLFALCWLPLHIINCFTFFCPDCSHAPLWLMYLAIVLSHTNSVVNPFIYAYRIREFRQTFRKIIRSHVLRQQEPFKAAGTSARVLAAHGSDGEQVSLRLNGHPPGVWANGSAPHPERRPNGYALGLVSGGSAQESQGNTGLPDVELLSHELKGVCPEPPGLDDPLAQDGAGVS

| SMILES | inhibition at 1 µM [%] |
| --- | --- |
| CNC(=O)[C@H]1S[C@@H](n2cnc3c(NC)nc(Cl)nc32)[C@H](O)[C@@H]1O [Compound 4, reference compound] | 20 |
| CNC(=O)[C@H]1S[C@@H](n2cnc3c(NC)ncnc32)[C@H](O)[C@@H]1O [Compound 5a, N^6-Methyl-9-(5’-methylaminocarbonyl-4’-thio-β-D-ribofuranosyl)adenine] | 35 ± 8 |
| CCNC(=O)[C@H]1S[C@@H](n2cnc3c(NC)ncnc32)[C@H](O)[C@@H]1O [Compound 5b, 9-(5’-Ethylaminocarbonyl-4’-thio-β-D-ribofuranosyl)-N^6-methyladenine] | 20 |
| CNc1ncnc2c1ncn2[C@@H]1S[C@H](C(=O)NCC2CC2)[C@@H](O)[C@H]1O [Compound 5d, 9-(5’-Cyclopropylmethylaminocarbonyl-4’-thio-β-D-ribofuranosyl)-N^6-methyladenine] | 38 ± 5 |
| CNc1ncnc2c1ncn2[C@@H]1S[C@H](C(=O)NC2CCCC2)[C@@H](O)[C@H]1O [Compound 5f, 9-(5’-Cyclopentylaminocarbonyl-4’-thio-β-D-ribofuranosyl)-N^6-methyladenine] | 45 ± 1 |
| CNc1ncnc2c1ncn2[C@@H]1S[C@H](C(=O)NCc2cccc(I)c2)[C@@H](O)[C@H]1O [Compound 5g, 9-[(5’-(3-Iodo-benzylaminocarbonyl)-4’-thio-β-D-ribofuranosyl)]-N^6-methyladenine] | 27 ± 10 |
| O=C(NC1CCCCC1)[C@H]1S[C@@H](n2cnc3c(NCc4cccc(I)c4)ncnc32)[C@H](O)[C@@H]1O [Compound 5m, 9-(5’-Cyclohexylaminocarbonyl-4’-thio-β-D-ribofuranosyl)-N^6-(3-iodobenzyl)adenine] | 24 ± 7 |
| O=C(NCc1cccc(F)c1)[C@H]1S[C@@H](n2cnc3c(NCc4cccc(I)c4)ncnc32)[C@H](O)[C@@H]1O [Compound 5n, 9-[5’-(3-Fluoro-benzylaminocarbonyl-4’-thio-β-D-ribofuranosyl)]-N^6-(3-iodobenzyl)adenine] | 35 ± 8 |
| O=C(NCc1cccc(Cl)c1)[C@H]1S[C@@H](n2cnc3c(NCc4cccc(I)c4)ncnc32)[C@H](O)[C@@H]1O [Compound 5o, 9-[5’-(3-Chloro-benzylaminocarbonyl-4’-thio-β-D-ribofuranosyl)]-N^6-(3-iodobenzyl)adenine] | 44 ± 1 |
| Cc1ccccc1CNC(=O)[C@H]1S[C@@H](n2cnc3c(NCc4cccc(I)c4)ncnc32)[C@H](O)[C@@H]1O [Compound 5p, N^6-(3-Iodo-benzyl)-9-[5’-(2-methyl-benzylaminocarbonyl-4’-thio-β-D-ribofuranosyl)]adenine] | 26 ± 10 |
| Cc1cccc(CNC(=O)[C@H]2S[C@@H](n3cnc4c(NCc5cccc(I)c5)ncnc43)[C@H](O)[C@@H]2O)c1 [Compound 5q, N^6-(3-Iodo-benzyl)-9-[5’-(3-methyl-benzylaminocarbonyl-4’-thio-β-D-ribofuranosyl)]adenine] | 31 ± 1 |
| Cc1ccc(CNC(=O)[C@H]2S[C@@H](n3cnc4c(NCc5cccc(I)c5)ncnc43)[C@H](O)[C@@H]2O)cc1 [Compound 5r, N^6-(3-Iodo-benzyl)-9-[5’-(4-methyl-benzylaminocarbonyl-4’-thio-β-D-ribofuranosyl)]adenine] | 37 |
| COc1ccccc1CNC(=O)[C@H]1S[C@@H](n2cnc3c(NCc4cccc(I)c4)ncnc32)[C@H](O)[C@@H]1O [Compound 5s, N^6-(3-Iodo-benzyl)-9-[5’-(2-methoxy-benzylaminocarbonyl-4’-thio-β-D-ribofuranosyl)]adenine] | 28 ± 9 |
| CCOc1ccccc1CNC(=O)[C@H]1S[C@@H](n2cnc3c(NCc4cccc(I)c4)ncnc32)[C@H](O)[C@@H]1O [Compound 5t, 9-[5’-(2-Ethoxy-benzylaminocarbonyl-4’-thio-β-D-ribofuranosyl)]-N^6-(3-iodobenzyl)adenine] | 23 ± 8 |
| O=C(NCCc1ccccc1)[C@H]1S[C@@H](n2cnc3c(NCc4cccc(I)c4)ncnc32)[C@H](O)[C@@H]1O [Compound 5v, N^6-(3-Iodo-benzyl)-9-[5’-(2-phenetylaminocarbonyl-4’-thio-β-D-ribofuranosyl)]adenine] | 11 |

target: T1, human A3 adenosine receptor (Homo sapiens, UniProt P0DMS8); assay: not given; format: cell-based; conditions: transfected CHO cells
T1 sequence (P0DMS8 1-318): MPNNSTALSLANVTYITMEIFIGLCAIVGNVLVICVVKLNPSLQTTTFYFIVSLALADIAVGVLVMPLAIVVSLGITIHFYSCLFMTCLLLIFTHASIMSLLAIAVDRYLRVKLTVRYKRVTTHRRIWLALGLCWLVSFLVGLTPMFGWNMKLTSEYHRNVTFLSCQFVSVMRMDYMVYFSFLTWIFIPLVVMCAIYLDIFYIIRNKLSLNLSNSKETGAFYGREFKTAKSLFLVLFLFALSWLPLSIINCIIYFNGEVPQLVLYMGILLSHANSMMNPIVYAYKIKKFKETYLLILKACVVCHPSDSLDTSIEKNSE

| SMILES | Agonist efficacy at human A3AR (inhibition of cyclic AMP) |
| --- | --- |
| CNC(=O)[C@H]1S[C@@H](n2cnc3c(NCc4cccc(I)c4)ncnc32)[C@H](O)[C@@H]1O [Compound 5h, N^6-(3-Iodo-benzyl)-9-(5’-methylaminocarbonyl-4’-thio-β-D-ribofuranosyl)adenine] | full agonist |

test system: not given; assay: not given; conditions: cited from earlier work

| SMILES | In vitro anticancer activity |
| --- | --- |
| CNC(=O)[C@H]1S[C@@H](n2cnc3c(NCc4cccc(I)c4)nc(Cl)nc32)[C@H](O)[C@@H]1O [Compound 3, thio-Cl-IB-MECA] | potent |

test system: not given; assay: not given; conditions: cited from earlier work; remark: another data set of the same source

| SMILES | In vivo anticancer activity |
| --- | --- |
| CNC(=O)[C@H]1S[C@@H](n2cnc3c(NCc4cccc(I)c4)nc(Cl)nc32)[C@H](O)[C@@H]1O [Compound 3, thio-Cl-IB-MECA] | potent |

Reference: publication PMC2797373 (Bioorganic & medicinal chemistry, 2009)
